Laboratory results published in patent US10808003B2, “Amphipathic molecule based on tandem malonate and use thereof” (Industry-University Cooperation Foundation Hanyang …, priority 2017, dated 2020).

Experiments:
[1] = biological target: T1, melibiose permease (MelBSt) (Salmonella typhimurium, UniProt P30878); experiment: MelBSt extraction and solubility at four temperatures, SDS-PAGE and western blotting; assay type: biochemical; conditions: 1.5 wt %, 90 minutes
T1 construct: made in house; host or cells: E. coli DW2 cells (melB and lacZY), plasmid pK95AHB/WT MelBSt/CH10
Procedure: An experiment was performed to measure structural stability of Salmonella typhimurium melibiose permease (MelBSt) protein by TMGs. The MelBSt protein was extracted from a membrane using TMGs or DDM, and then an amount of the extracted protein and its structure were analyzed by SDS-PAGE and western blotting. A concentration of the amphipathic molecule used was 1.5 wt %, and two types of performance such as protein extraction efficiency and stabilization ability of the compound were simultaneously evaluated by extracting the protein at four temperatures (0, 45, 55, and 65° C.), incubating the protein for 90 minutes at the same temperatures, and measuring an amount of the protein remaining dissolved in an aqueous solution. The amount of the protein extracted and stabilized by each amphipathic molecule was expressed as a relative value (%) with respect to a total amount of the protein contained in a membrane sample not treated with an amphipathic molecule.
Specifically, Salmonella typhimurium MelBSt (melibiose permease) having a 10-His tag at the C-terminus was expressed in E. coli DW2 cells (melB and lacZY) using plasmid pK95AHB/WT MelBSt/CH10. According to the method disclosed in the article written by A. S. Ethayathulla et al. (Nat. Commun. 2014, 5, 2009), cell growth and membrane preparation were performed. A protein assay was performed using a Micro BCA kit (Thermo Scientific, Rockford, Ill.). Using the protocol disclosed in Nat. Methods 2010, 7, 1003-1008 written by P. S. Chae et al., DDM or TMGs were evaluated for MelBSt stability. A MelBSt-containing membrane sample (the final protein concentration was 10 mg/mL) was incubated at four temperatures (0, 45, 55 and 65° C.) for 90 minutes in a 1.5% (w/v) DDM or TMG-containing solubilization buffer (20 mM sodium phosphate, pH 7.5, 200 mM NaCl, 10% glycerol, 20 mM melibiose). To remove insoluble material, ultracentrifugation was performed using a Beckman Optima™ MAX ultracentrifuge equipped with a TLA-100 rotor at 355,590 g at 4° C. for 45 minutes, and then 20 μg of each protein sample was separated using SDS-15% PAGE, followed by immunoblotting using a Penta-His-HRP antibody (Qiagen, Germantown, Md.). MelBSt was measured by an ImageQuant LAS 4000 biomolecular imager (GE Health Care Life Sciences) using a SuperSignal West Pico chemiluminescent substrate.

[2] = system: T2, light harvesting complex I and reaction center (LHI-RC) complex; experiment: Stability of LHI-RC complex in amphipathic molecule, UV-visible spectrum over 20 days; assay type: biochemical, Rhodobacter capsulatus; conditions: CMC+0.04 wt % or CMC+0.2 wt %, 20 days at room temperature, FIGS. 7 and 8
T2 construct: His tag (only implied by the Ni-NTA / His-SpinTrap purification); made in house
Procedure: The super-assembly of R. capsulatus expressed in manipulated R. capsulatus strains was solubilized and purified according to a protocol disclosed in previous literature (P. S. Chae, Analyst, 2015, 140, 3157-3163.). A 10 mL aliquot of a frozen membrane was thawed, and homogenized using a glass tissue homogenizer at room temperature. The homogenate was incubated for 30 minutes at 32° C. under gentle agitation. After addition of 1.0 wt % DDM, the homogenate was further incubated for 30 minutes at 32° C. Following ultracentrifugation, a supernatant containing a solubilized light harvesting complex I and reaction center (LHI-RC) complex was collected, and incubated with an Ni^2+-NTA resin for 1 hour at 4° C. The resin was added to each 10 His-SpinTrap column, and then the resulting product was washed with 500 μL of a coupling buffer (10 mM Tris (pH 7.8), […], 1×CMC DDM) twice. The LHI-RC complex purified by DDM was eluted from the column using a buffer containing 1.0 M imidazole (2×300 μL). […] Protein stability was measured at regular intervals while a protein-amphipathic molecule sample was incubated by measuring the UV-visible spectrum of a specimen in a range of 650 to 950 nm.

[3] = Critical micelle concentration by fluorescent staining with diphenylhexatriene (DPH); assay type: physicochemical; conditions: aqueous solution
Procedure: A method of measuring CMC is not particularly limited, and any method well known in the art, for example, a fluorescent staining method using diphenylhexatriene (DPH) may be used.
(§1) Specifically, a CMC was measured using fluorescent staining and diphenylhexatriene (DPH), and the hydrodynamic radii (Rh) of micelles formed by each agent (1.0 wt %) were measured by a DLS test. The measured results were compared with those for the conventional amphipathic molecule (detergent), DDM, and thus are shown in Table 1.

[4] = Hydrodynamic radius of micelles by dynamic light scattering (DLS); assay type: physicochemical; conditions: micelles formed by each agent at 1.0 wt %
Procedure: A method of measuring the radius of the micelles is not particularly limited, and any method well known in the art, for example, a DLS test may be used.
as §1

[5] = system: LeuT (leucine transporter); experiment: LeuT stability by [3H]-Leu substrate binding, scintillation proximity assay (SPA); assay type: biochemical, Aquifex aeolicus; conditions: TMMs or DDM at CMC+0.04 wt %, incubation at room temperature, FIG. 13a
Procedure: An experiment of measuring LeuT protein stability for TMGs and TMMs was performed. (a) CMC+0.04 wt % or (b) CMC+0.2 wt % of each amphipathic molecule was used, and the evaluation of the LeuT protein stability was performed by taking an advantage of a characteristic of LeuT binding to a substrate through a scintillation proximity assay (SPA) using [^3H]-Leu. […]
Specifically, wild type LeuT (leucine transporter) derived from a thermophilic bacterium, Aquifex aeolicus, was purified by a previously-disclosed method (G. Deckert et al., Nature 1998, 392, 353-358). LeuT was expressed in E. coli C41 (DE3) transformed with pET16b encoding a C-terminus 8×His-tagged transporter (the expression plasmid was provided by Dr E. Gouaux, Vollum Institute, Portland, Oreg., USA). In summary, following isolation of a bacterial membrane and lysis with 1% (w/v) DDM, the protein was allowed to bind to a Ni^2+-NTA resin (Life Technologies, Denmark), and eluted in 20 mM Tris-HCl (pH 8.0), 1 mM NaCl, 199 mM KCl, 0.05% (w/v) DDM and 300 mM imidazole. Afterward, the purified LeuT (approximately 1.5 mg/ml) was diluted with the same buffer used above, from which DDM and imidazole were removed, and then supplemented with TMGs or DDM at the final concentration of CMC+0.04% (w/v). […] SPA was performed using a buffer containing 450 mM NaCl and each of the TMGs and TMMs at the predetermined concentration. The SPA reaction is performed in the presence of 20 nM [^3H]-Leucine and 1.25 mg/ml copper chelate (His-Tag) YSi beads (Perkin Elmer, Denmark). A total [^3H]-Leucine binding degree of each sample was measured using a MicroBeta liquid scintillation counter (Perkin Elmer).

**Q.** Which “amount of MelBSt solubilized / extraction efficiency” value ([1]; 0° C.) does the source give for `CCCCCCCCCCCCO[C@@H]1O[C@H](CO)[C@@H](O[C@H]2O[C@H](CO)[C@@H](O)[C@H](O)[C@H]2O)[C@H](O)[C@H]1O` [DDM, n-dodecyl-β-D-maltopyranoside, reference compound] here?
**A.** Its value is “slightly more excellent protein extraction efficiency than TMGs”.

**Q.** What about the MelBSt remaining solubilized ([1]; 55° C.) of the same molecule?
**A.** Its MelBSt remaining solubilized is 10%.

**Q.** And the “MelBSt protein dissolved in aqueous solution” value ([1]; 65° C.)?
**A.** Its value is “not detected”.

**Q.** And the “stability of the LHI-RC complex” value [2]?
**A.** Its value is “significantly reduced complex stabilization as the concentration increased from CMC+0.04 wt % to CMC+0.2 wt %”.

**Q.** What about the “CMC” value [3] of the same molecule?
**A.** Its value is about 0.17 mM.

**Q.** What about the “CMC (wt %)” value [3] of the same molecule?
**A.** Its value is about 0.0087 wt %.

**Q.** And the “Rh (nm), hydrodynamic radius of micelles” value [4]?
**A.** Its value is 3.4 ± 0.03 nm.

**Q.** And the “activity of LeuT over time” value [5]?
**A.** The value was “gradually reduced over time”.
